# Reference: patent publication US10357477B2, “Anticancer compounds” (REGENTS OF THE UNIVERSITY OF MINNESOTA, priority 2016, dated 2019)
# Test system: MIA PaCa-2 cells
# Assay: Cell viability assay (MTT) in MIA PaCa-2 cells
# Type: cell-based
# Conditions: Homo sapiens, antiproliferative activity, 72 h
# Procedure: MIA PaCa-2 cells (CRL-1420, ATCC) were maintained in DMEM media supplemented with 10% FBS, 2.5% HS, 1% GlutaMAX, 1% sodium pyruvate, 100 U/mL penicillin, and 100 μg/mL streptomycin. Cell culture media and additives were purchased from Gibco. Cells were plated in 96-well plates at |1−2.5|×10^4 cells per well in the DMEM growth media. One microliter of a 2-fold serially diluted compound solution in DMSO (Sigma) starting at 20 mM (100 μM final concentration) was added to each well. The final volume in each well was 200 μL, yielding a final DMSO concentration of 0.5%. Control wells contained 0.5% DMSO (100% viability) or 25% DMSO (background) and all reactions were done in triplicate. The plate was incubated for 72 h at 37° C. in a 5% CO2/95% air humidified atmosphere.
# Measurement of cell viability was carried out using a modified method of Mosmann based on 3-(4,5-dimethylthiazol-2-yl)-2,5-diphenyltetrazolium bromide (MTT, Sigma). MTT solution was prepared fresh at 1 mg/mL in serum-free and phenol red-free RPMI 1640 media. After 200 μL of MTT solution was added to each well, the plate was incubated as described above for 3 h. The MTT solution was removed, and the formazan crystals were solubilized with 200 μL of isopropanol. The plate was read on a SpectraMax i3 spectrophotometer (Molecular Devices) at 570 nm for formazan and 650 nm for background subtraction. EC50 values were calculated by fitting the data in GraphPad Prism software. EC50 values were determined in triplicate.
row,Structure (SMILES),EC50 [µM]
1,"Cc1nn(Cc2ccccc2)c(C)c1NC(=O)c1ccc(COc2ccccc2)cc1 [Compound A1, N-(1-Benzyl-3,5-dimethyl-1H-pyrazol-4-yl)-4-(phenoxymethyl)benzamide]",10
2,"Cc1nn(Cc2ccc(C(N)=O)cc2)c(C)c1NC(=O)c1ccc(COc2ccccc2)cc1 [Compound A2a, N-(1-(4-Carbamoylbenzyl)-3,5-dimethyl-1H-pyrazol-4-yl)-4-(phenoxymethyl)benzamide]",> 100
3,"Cc1nn(Cc2cccc(C(=O)Nc3ccccc3)c2)c(C)c1NC(=O)c1ccc(COc2ccccc2)cc1 [Compound A4d, 3-((3,5-Dimethyl-4-(4-(phenoxymethyl)benzamido)-1H-pyrazol-1-yl)methyl)-N-phenylbenzamide]",6.4
4,"CNC(=O)c1cccc(Cn2nc(C)c(N(C)C(=O)c3ccc(COc4ccccc4)cc3)c2C)c1 [Compound B1, N-(3,5-Dimethyl-1-(3-(methylcarbamoyl)benzyl)-1H-pyrazol-4-yl)-N-methyl-4-(phenoxymethyl)benzamide]",17
5,"CNC(=O)c1cccc(Cn2nc(C)c(NCc3ccc(COc4ccccc4)cc3)c2C)c1 [Compound B2, 3-((3,5-Dimethyl-4-((4-(phenoxymethyl)benzyl)amino)-1H-pyrazol-1-yl)methyl)-N-methylbenzamide]",6.1
6,"CNC(=O)c1cccc(Cn2nc(C)c(NS(=O)(=O)c3ccc(COc4ccccc4)cc3)c2C)c1 [Compound B3, 3-((3,5-Dimethyl-4-((4-(phenoxymethyl)phenyl)sulfonamido)-1H-pyrazol-1-yl)methyl)-N-methylbenzamide]",25
7,"CNC(=O)c1cccc(Cn2nc(C)c(NC(=O)c3ccc(CSc4ccccc4)cc3)c2C)c1 [Compound C1, 3-((3,5-Dimethyl-4-(4-((phenylthio)methyl)benzamido)-1H-pyrazol-1-yl)methyl)-N-methylbenzamide]",8.3
8,"CNC(=O)c1cccc(Cn2nc(C)c(NC(=O)c3ccc(CNc4ccccc4)cc3)c2C)c1 [Compound C2, 3-((3,5-Dimethyl-4-(4-((phenylamino)methyl)benzamido)-1H-pyrazol-1-yl)methyl)-N-methylbenzamide]",17
9,"CNC(=O)c1cccc(Cn2nc(C)c(NC(=O)c3cccc(COc4ccccc4)c3)c2C)c1 [Compound C6, N-(3,5-Dimethyl-1-(3-(methylcarbamoyl)benzyl)-1H-pyrazol-4-yl)-3-(phenoxymethyl)benzamide]",32
10,"CNC(=O)c1cccc(Cn2nc(C)c(NC(=O)c3ccc(COC4CCCCC4)cc3)c2C)c1 [Compound C7, 3-((4-(4-((Cyclohexyloxy)methyl)benzamido)-3,5-dimethyl-1H-pyrazol-1-yl)methyl)-N-methylbenzamide]",14
11,"CNC(=O)c1cccc(Cn2nc(C)c(NC(=O)c3ccc(COc4ccc5ccccc5c4)cc3)c2C)c1 [Compound D1, 3-((3,5-Dimethyl-4-(4-((naphthalen-2-yloxy)methyl)benzamido)-1H-pyrazol-1-yl)methyl)-N-methylbenzamide]",9.1
12,"CNC(=O)c1cccc(Cn2nc(C)c(NC(=O)c3ccc(COc4cccc(C#N)c4)cc3)c2C)c1 [Compound D7b, 3-((4-(4-((3-Cyanophenoxy)methyl)benzamido)-3,5-dimethyl-1H-pyrazol-1-yl)methyl)-N-methylbenzamide]",10
13,"CNC(=O)c1cccc(Cn2nc(C)c(NC(=O)c3ccc(COc4ccccc4[N+](=O)[O-])cc3)c2C)c1 [Compound D8a, 3-((3,5-Dimethyl-4-(4-((2-nitrophenoxy)methyl)benzamido)-1H-pyrazol-1-yl)methyl)-N-methylbenzamide]",11
14,"CNC(=O)c1cccc(Cn2nc(C)c(NC(=O)c3ccc(COc4cccc([N+](=O)[O-])c4)cc3)c2C)c1 [Compound D8b, 3-((3,5-Dimethyl-4-(4-((3-nitrophenoxy)methyl)benzamido)-1H-pyrazol-1-yl)methyl)-N-methylbenzamide]",10
15,"CNC(=O)c1cccc(Cn2nc(C)c(NC(=O)c3ccc(COc4ccc([N+](=O)[O-])cc4)cc3)c2C)c1 [Compound D8c, 3-((3,5-Dimethyl-4-(4-((4-nitrophenoxy)methyl)benzamido)-1H-pyrazol-1-yl)methyl)-N-methylbenzamide]",9.7
16,"CNC(=O)c1cccc(Cn2nc(C)c(NC(=O)c3ccc(COc4ccc(C(F)(F)F)cc4C)nc3)c2C)c1 [Compound E5a, N-(3,5-Dimethyl-1-(3-(methylcarbamoyl)benzyl)-1H-pyrazol-4-yl)-6-((2-methyl-4-(trifluoromethyl)phenoxy)methyl)nicotinamide]",6.7
17,"CNC(=O)c1cc(Cn2nc(C)c(NC(=O)c3ccc(COc4ccc(C(F)(F)F)cc4C)nc3)c2C)ccn1 [Compound E5b, 4-((3,5-Dimethyl-4-(6-((2-methyl-4-(trifluoromethyl)phenoxy)methyl)nicotinamido)-1H-pyrazol-1-yl)methyl)-N-methylpicolinamide]",9.4
18,"CNC(=O)c1cccc(Cn2nc(C)c(NC(=O)c3ccc(Oc4ccccc4)cc3)c2C)c1 [Compound E6a, 3-((3,5-Dimethyl-4-(4-phenoxybenzamido)-1H-pyrazol-1-yl)methyl)-N-methylbenzamide]",8.4
19,"CNC(=O)c1cccc(Cn2nc(C)c(NC(=O)c3ccc(Oc4ccc(C(F)(F)F)cc4)cc3)c2C)c1 [Compound E6b, 3-((3,5-Dimethyl-4-(4-(4-(trifluoromethyl)phenoxy)-benzamido)-1H-pyrazol-1-yl)methyl)-N-methylbenzamide]",4.6
20,"CNC(=O)c1cccc(Cn2nc(C)c(NC(=O)c3ccc(Oc4ccc(C(F)(F)F)cc4C)cc3)c2C)c1 [Compound E6c, 3-((3,5-Dimethyl-4-(4-(2-methyl-4-(trifluoromethyl)phenoxy)benzamido)-1H-pyrazol-1-yl)methyl)-N-methylbenzamide]",1.2
21,"CNC(=O)c1cc(Cn2nc(C)c(NC(=O)c3ccc(Oc4ccc(C(F)(F)F)cc4)cc3)c2C)ccn1 [Compound E7a, 4-((3,5-Dimethyl-4-(4-(4-(trifluoromethyl)phenoxy)-benzamido)-1H-pyrazol-1-yl)methyl)-N-methylpicolinamide]",8.1
22,"CNC(=O)c1cc(Cn2nc(C)c(NC(=O)c3ccc(Oc4ccc(C(F)(F)F)cc4C)cc3)c2C)ccn1 [Compound E7b, 4-((3,5-Dimethyl-4-(4-(2-methyl-4-(trifluoromethyl)phenoxy)-benzamido)-1H-pyrazol-1-yl)methyl)-N-methylpicolinamide]",10
23,"CNC(=O)c1cccc(Cn2nc(C)c(NC(=O)c3ccc(C(C)Oc4ccccc4)cc3)c2C)c1 (stereo not shown) [Compound F1, 3-((3,5-Dimethyl-4-(4-(1-phenoxyethyl)benzamido)-1H-pyrazol-1-yl)methyl)-N-methylbenzamide]",22
24,"CNC(=O)c1cccc(C(C)n2nc(C)c(NC(=O)c3ccc(COc4ccccc4)cc3)c2C)c1 (stereo not shown) [Compound F2, 3-(1-(3,5-Dimethyl-4-(4-(phenoxymethyl)benzamido)-1H-pyrazol-1-yl)ethyl)-N-methylbenzamide]",7.7
25,"CNC(=O)c1cccc(C(C)n2nc(C)c(NC(=O)c3ccc(COc4ccc(C(F)(F)F)cc4C)cc3)c2C)c1 (stereo not shown) [Compound F3, 3-(1-(3,5-Dimethyl-4-(4-((2-methyl-4-(trifluoromethyl)phenoxy)methyl)benzamido)-1H-pyrazol-1-yl)ethyl)-N-methylbenzamide]",2.4
26,"CNC(=O)c1cc(C(C)n2nc(C)c(NC(=O)c3ccc(COc4ccc(C(F)(F)F)cc4C)cc3)c2C)ccn1 (stereo not shown) [Compound F4, 4-(1-(3,5-Dimethyl-4-(4-((2-methyl-4-(trifluoromethyl)phenoxy)methyl)benzamido)-1H-pyrazol-1-yl)ethyl)-N-methylpicolinamide]",4
27,"CNC(=O)c1cccc(Cn2nc(C)c(NC(=O)c3ccc(COc4ccccn4)cc3)c2C)c1 [Compound G1, 3-((3,5-Dimethyl-4-(4-((pyridin-2-yloxy)methyl)benzamido)-1H-pyrazol-1-yl)methyl)-N-methylbenzamide]",> 100
28,"CNC(=O)c1cccc(Cn2nc(C)c(NC(=O)c3ccc(COc4cccnc4)cc3)c2C)c1 [Compound G2, 3-((3,5-Dimethyl-4-(4-((pyridin-3-yloxy)methyl)benzamido)-1H-pyrazol-1-yl)methyl)-N-methylbenzamide]",24
29,"CNC(=O)c1cccc(Cn2nc(C)c(NC(=O)c3ccc(COc4ccncc4)cc3)c2C)c1 [Compound G3, 3-((3,5-Dimethyl-4-(4-((pyridin-4-yloxy)methyl)benzamido)-1H-pyrazol-1-yl)methyl)-N-methylbenzamide]",99

# Test system: Panc-1 cells
# Assay: Cell viability assay (MTT) in Panc-1 cells
# Type: cell-based
# Conditions: Homo sapiens, antiproliferative activity, 72 h
# Procedure: Panc-1 cells are maintained in RPMI 1640 (Invitrogen 11875) media supplemented with 10% FBS, 1% Penicillin/Streptomycin and 1% Glutamax-1. Cells were plated in 96-well plates at 25×10^4 cells/ml. After 24 hours, compounds were added at 9, 3× dilutions in triplicate from 100 uM final concentration in the appropriate growth media. Plates were incubated for 72 hours at 37° C. in a 5% CO2/95% air humidified atmosphere after which time the media was removed and MTT was added in RPMI phenol red free media. The MTT was removed after 3 hours and formazan crystals were solubilized with 200 μL of isopropanol. Plates were read on a Molecular Devices SpectraMax i3 spectrophotometer at 570 nm for formazan and 690 nm for background subtraction. EC50 values were calculated by fitting the data in GraphPad Prism software.
row,Structure (SMILES),EC50 [µM]
1,"Cc1nn(Cc2ccccc2)c(C)c1NC(=O)c1ccc(COc2ccccc2)cc1 [Compound A1, N-(1-Benzyl-3,5-dimethyl-1H-pyrazol-4-yl)-4-(phenoxymethyl)benzamide]",9
2,"Cc1nn(Cc2ccc(C(N)=O)cc2)c(C)c1NC(=O)c1ccc(COc2ccccc2)cc1 [Compound A2a, N-(1-(4-Carbamoylbenzyl)-3,5-dimethyl-1H-pyrazol-4-yl)-4-(phenoxymethyl)benzamide]",> 100
